Test results: ChEMBL document CHEMBL3046211, “Synthesis, antimicrobial, analgesic activity, and molecular docking studies of novel 1-(5,7-dichloro-1,3-benzoxazol-2-yl)-3-phenyl-1H-pyrazole-4-carbaldehyde derivatives” (2013)
Values after ≈ are worked out from the molar mass of the structure shown.

Legend:
Salmonella typhi [1] = assay: Antibacterial activity against Salmonella typhi pateint isolate; assay type: functional, Salmonella enterica subsp. enterica serovar Typhi; settings: Salmonella enterica
Bacillus subtilis [2] = assay: Antibacterial activity against Bacillus subtilis pateint isolate at 40 ug/ml after 24 hrs by agar well diffusion method; assay type: functional; settings: read-out: IZ
Staphylococcus aureus [3] = assay: Antibacterial activity against Staphylococcus aureus pateint isolate at 40 ug/ml after 24 hrs by agar well diffusion method; assay type: functional; settings: read-out: IZ
Salmonella typhi [4] = assay: Antibacterial activity against Salmonella typhi pateint isolate at 40 ug/ml after 24 hrs by agar well diffusion method; assay type: functional, Salmonella enterica subsp. enterica serovar Typhi; settings: Salmonella enterica, read-out: IZ
Escherichia coli [5] = assay: Antibacterial activity against Escherichia coli pateint isolate at 40 ug/ml after 24 hrs by agar well diffusion method; assay type: functional
Aspergillus niger [6] = assay: Antifungal activity against Aspergillus niger; assay type: functional
Escherichia coli [7] = assay: Antibacterial activity against Escherichia coli pateint isolate; assay type: functional
Candida albicans [8] = assay: Antifungal activity against Candida albicans at 40 ug/ml after 72 hrs by agar well diffusion method; assay type: functional; settings: read-out: IZ
Bacillus subtilis [9] = assay: Antibacterial activity against Bacillus subtilis pateint isolate; assay type: functional
Aspergillus niger [10] = assay: Antifungal activity against Aspergillus niger at 40 ug/ml after 72 hrs by agar well diffusion method; assay type: functional; settings: read-out: IZ
Mus musculus = assay: Analgesic activity in Swiss albino mouse assessed as protection against acetic acid-induced writhing at 100 mg/kg, po administered 1 hr prior to acetic acid-challenge measured after 5 mins for 20 mins relative to control; assay type: functional
Staphylococcus aureus [11] = assay: Antibacterial activity against Staphylococcus aureus pateint isolate; assay type: functional
Candida albicans [12] = assay: Antifungal activity against Candida albicans; assay type: functional
Salmonella typhi [13] = assay: Antibacterial activity against Salmonella typhi pateint isolate at 40 ug/100 ul after 24 hrs by agar well diffusion method; assay type: functional, Salmonella enterica subsp. enterica serovar Typhi
Aspergillus niger [14] = assay: Antifungal activity against Aspergillus niger at 40 ug/100 ul after 72 hrs by agar well diffusion method; assay type: functional
Candida albicans [15] = assay: Antifungal activity against Candida albicans at 40 ug/100 ul after 72 hrs by agar well diffusion method; assay type: functional

Row | SMILES | MIC (Salmonella typhi [1]) | zone of inhibition at 40 µg/mL (Bacillus subtilis [2]) | zone of inhibition at 40 µg/mL (Staphylococcus aureus [3]) | zone of inhibition at 40 µg/mL (Salmonella typhi [4]) | inhibition zone (IZ) (Escherichia coli [5]) | MIC (Aspergillus niger [6]) | MIC (Escherichia coli [7]) | zone of inhibition at 40 µg/mL (Candida albicans [8]) | MIC (Bacillus subtilis [9]) | zone of inhibition at 40 µg/mL (Aspergillus niger [10]) | Activity (Mus musculus) | MIC (Staphylococcus aureus [11]) | MIC (Candida albicans [12]) | inhibition zone (IZ) (Salmonella typhi [13]) | inhibition zone (IZ) (Aspergillus niger [14]) | inhibition zone (IZ) (Candida albicans [15])
1 | O=Cc1cn(-c2nc3cc(Cl)cc(Cl)c3o2)nc1-c1ccc(O)cc1 | 30 µg/mL (≈ 80.2 µM) | 23 mm | 23 mm | 21 mm | 22 mm | 30 µg/mL (≈ 80.2 µM) | 30 µg/mL (≈ 80.2 µM) | 22 mm | 20 µg/mL (≈ 53.4 µM) | 22 mm | 55.78% | 20 µg/mL (≈ 53.4 µM) | 20 µg/mL (≈ 53.4 µM) | – | – | –
2 | Cc1ccc(-c2nn(-c3nc4cc(Cl)cc(Cl)c4o3)cc2C=O)cc1 | 30 µg/mL (≈ 80.6 µM) | 20 mm | 21 mm | 20 mm | 21 mm | 30 µg/mL (≈ 80.6 µM) | 40 µg/mL (≈ 107 µM) | 19 mm | 30 µg/mL (≈ 80.6 µM) | 19 mm | 51.4% | 30 µg/mL (≈ 80.6 µM) | 30 µg/mL (≈ 80.6 µM) | – | – | –
3 | O=Cc1cn(-c2nc3cc(Cl)cc(Cl)c3o2)nc1-c1ccc(Br)cc1 | 30 µg/mL (≈ 68.6 µM) | 22 mm | 23 mm | 21 mm | 22 mm | 20 µg/mL (≈ 45.8 µM) | 20 µg/mL (≈ 45.8 µM) | 23 mm | 20 µg/mL (≈ 45.8 µM) | 22 mm | 54.63% | 20 µg/mL (≈ 45.8 µM) | 30 µg/mL (≈ 68.6 µM) | – | – | –
4 | O=Cc1cn(-c2nc3cc(Cl)cc(Cl)c3o2)nc1-c1ccc(Cl)c(Cl)c1 | 30 µg/mL (≈ 70.2 µM) | 22 mm | 22 mm | 20 mm | 22 mm | 40 µg/mL (≈ 93.7 µM) | 30 µg/mL (≈ 70.2 µM) | 22 mm | 30 µg/mL (≈ 70.2 µM) | 22 mm | 50% | 30 µg/mL (≈ 70.2 µM) | 40 µg/mL (≈ 93.7 µM) | – | – | –
5 | COc1ccc(-c2nn(-c3nc4cc(Cl)cc(Cl)c4o3)cc2C=O)cc1 | 40 µg/mL (≈ 103 µM) | 20 mm | 19 mm | 19 mm | 22 mm | 30 µg/mL (≈ 77.3 µM) | 40 µg/mL (≈ 103 µM) | 20 mm | 40 µg/mL (≈ 103 µM) | 20 mm | 50.27% | 30 µg/mL (≈ 77.3 µM) | 40 µg/mL (≈ 103 µM) | – | – | –
6 | CC(=O)Oc1ccccc1C(=O)O [ASPIRIN] | – | – | – | – | – | – | – | – | – | – | 58.74% | – | – | – | – | –
7 | O=C(O)c1cn(C2CC2)c2cc(N3CCNCC3)c(F)cc2c1=O [CIPROFLOXACIN] | – | – | – | – | – | – | – | – | – | – | – | – | – | 21 mm | – | –
8 | OC(Cn1cncn1)(Cn1cncn1)c1ccc(F)cc1F [FLUCONAZOLE] | – | – | – | – | – | – | – | – | – | – | – | – | – | – | 22 mm | 23 mm
